Test results: patent US9085555B2, “Complement pathway modulators and uses thereof” (priority 2011, dated 2015)

Target: Factor D (Homo sapiens (Human), UniProt P00746)
Assay: biochemical
Type: biochemical
Conditions: read-out: IC50

Factor D, sequence (P00746 26-253): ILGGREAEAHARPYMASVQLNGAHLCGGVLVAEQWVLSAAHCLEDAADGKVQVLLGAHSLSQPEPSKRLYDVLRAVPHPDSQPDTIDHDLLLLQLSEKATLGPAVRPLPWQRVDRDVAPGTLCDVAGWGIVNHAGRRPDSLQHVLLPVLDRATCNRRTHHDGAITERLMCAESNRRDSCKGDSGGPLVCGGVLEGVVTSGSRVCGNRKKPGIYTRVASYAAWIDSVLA

Row | SMILES | IC50 [nM]
1 | NC(=O)c1cn(CC(=O)N2C[C@H](F)C[C@H]2C(=O)NCc2cccc(Cl)c2F)c2cc(OCC(=O)O)ccc12 [Example 593, (3-Carbamoyl-1-{2-[(2S,4R)-2-(3-chloro-2-fluoro-benzylcarbamoyl)-4-fluoro-pyrrolidin-1-yl]-2-oxo-ethyl}-1H-indol-6-yloxy)-acetic acid] | 56
2 | NC(=O)n1cc(NC(=O)N2C[C@H](F)C[C@H]2C(=O)NCc2cc(-c3nnn[nH]3)cc(Cl)c2F)c2ccccc21 [Example 346, (2S,4R)-4-Fluoro-pyrrolidine-1,2-dicarboxylic acid 1-[(1-carbamoyl-1H-indol-3-yl)-amide]2-[3-chloro-2-fluoro-5-(1H-tetrazol-5-yl)-benzylamide]] | 69
3 | CO[C@H]1[C@@H](C(=O)NCc2cccc(Cl)c2F)N(C(=O)Cn2nc(C(N)=O)c3cnccc32)C[C@@H]1F [Example 663, 1-{2-[(2S,3S,4S)-2-(3-Chloro-2-fluoro-benzylcarbamoyl)-4-fluoro-3-methoxy-pyrrolidin-1-yl]-2-oxo-ethyl}-1H-pyrazolo[4,3-c]pyridine-3-carboxylic acid amide] | 36
4 | CC(=O)c1cn(CC(=O)N2[C@@H]3C[C@@H]3C[C@H]2C(=O)Nc2cccc(Br)n2)c2nnccc12 [Example 752, (1R,3S,5R)-2-[2-(5-Acetyl-pyrrolo[2,3-c]pyridazin-7-yl)-acetyl]-2-aza-bicyclo[3.1.0] hexane-3-carboxylic acid (6-bromo-pyridin-2-yl)-amide] | 95
5 | CNC(=O)c1cn(CC(=O)N2C[C@H](F)C[C@H]2C(=O)NCc2cccc(Cl)c2F)c2ccccc12 [Example 519, 1-{2-[(2S,4R)-2-(3-Chloro-2-fluoro-benzylcarbamoyl)-4-fluoro-pyrrolidin-1-yl]-2-oxo-ethyl}-1H-indole-3-carboxylic acid methylamide] | 722
6 | NC(=O)n1cc(NC(=O)N2C[C@@](F)(CNC=O)C[C@H]2C(=O)NCc2cccc(Cl)c2F)c2ccccc21 [Example 410, 2S,4S)-4-Fluoro-4-formylaminomethyl-pyrrolidine-1,2-dicarboxylic acid 1-[(1-carbamoyl-1H-indol-3-yl)-amide]2-(3-chloro-2-fluoro-benzylamide] | 15
7 | CN(C)CCN(C)Cc1cc(Cl)c(F)c(CNC(=O)[C@@H]2C[C@@H](F)CN2C(=O)Nc2cn(C(N)=O)c3ccccc23)c1 [Example 17, (2S,4R)-4-Fluoro-pyrrolidine-1,2-dicarboxylic acid 1-[(1-carbamoyl-1H-indol-3-yl)-amide] 2-(3-chloro-5-{[(2-dimethylamino-ethyl)-methyl-amino]-methyl}-2-fluoro-benzylamide)] | 4050
8 | O=C(Nc1cccc(OC(F)(F)F)c1)[C@@H]1CCCN1C(=O)Nc1cn(C(=O)CO)c2ccccc12 [Example 366, (S)-Pyrrolidine-1,2-dicarboxylic acid 1-{[1-(2-hydroxy-acetyl)-1H-indol-3-yl]-amide}2-[(3-trifluoromethoxy-phenyl)-amide]] | 3250
9 | NC(=O)n1cc(NC(=O)N2C[C@H](F)C[C@H]2C(=O)NCc2cc(C(=O)N3CCOCC3)cc(Cl)c2F)c2ccccc21 [Example 250, (2S,4R)-4-Fluoro-pyrrolidine-1,2-dicarboxylic acid 1-[(1-carbamoyl-1H-indol-3-yl)-amide] 2-[3-chloro-2-fluoro-5-(morpholine-4-carbonyl)-benzylamide]] | 549
10 | NC(=O)n1cc(NC(=O)N2C[C@@H](N)C[C@H]2C(=O)NCc2cccc(-c3ccc(Cl)s3)c2)c2ccccc21 [Example 41, (2S,4S)-4-Amino-pyrrolidine-1,2-dicarboxylic acid 1-[(1-carbamoyl-1H-indol-3-yl)-amide] 2-[3-(5-chloro-thiophen-2-yl)-benzylamide]] | 3200
11 | CCN(CC)Cc1cc(Cl)c(F)c(CNC(=O)[C@@H]2C[C@@H](F)CN2C(=O)Nc2cn(C(N)=O)c3ccccc23)c1 [Example 12, (2S,4R)-4-Fluoro-pyrrolidine-1,2-dicarboxylic acid 1-[(1-carbamoyl-1H-indol-3-yl)-amide] 2-(3-chloro-5-diethylamino-methyl-2-fluoro-benzyl-amide)] | 11100
12 | NC(=O)c1nn(CC(=O)N2[C@@H]3C[C@@H]3C[C@H]2C(=O)NCc2cccc(Cl)c2F)c2ccncc12 [Example 650, 1-{2-[(1R,3S,5R)-3-(3-Chloro-2-fluoro-benzylcarbamoyl)-2-aza-bicyclo[3.1.0]hex-2-yl]-2-oxo-ethyl}-1H-pyrazolo[4,3-c]pyridine-3-carboxylic acid amide] | 22
13 | CC(=O)c1cn(CC(=O)N2[C@@H]3C[C@@H]3C[C@H]2C(=O)N[C@H](CO)c2cccc(Cl)c2F)c2ncccc12 [Example 613, (1R,3S,5R)-2-[2-(3-Acetyl-pyrrolo[2,3-b]pyridin-1-yl)-acetyl]-2-aza-bicyclo[3.1.0]hexane-3-carboxylic acid [(S)-1-(3-chloro-2-fluoro-phenyl)-2-hydroxy-ethyl]-amide] | 215
14 | Cc1cc2c(cn1)c(C(N)=O)nn2CC(=O)N1[C@@H]2C[C@@H]2C[C@H]1C(=O)NCc1cccc(Cl)c1F [Example 653, 1-{2-[(1R,3S,5R)-3-(3-Chloro-2-fluoro-benzylcarbamoyl)-2-aza-bicyclo[3.1.0]hex-2-yl]-2-oxo-ethyl}-6-methyl-1H-pyrazolo[4,3-c]pyridine-3-carboxylic acid amide] | 47
15 | NC(=O)n1cc(NC(=O)N2C[C@@H](N)C[C@H]2C(=O)NCCc2cccc(Cl)c2)c2ccccc21 [Example 86, (2S,4S)-4-Amino-pyrrolidine-1,2-dicarboxylic acid 1-[(1-carbamoyl-1H-indol-3-yl)-amide] 2-{[2-(3-chloro-phenyl)-ethyl]-amide}] | 14300
16 | COc1ccc2c(c1)c(NC(=O)N1[C@@H]3C[C@@H]3C[C@H]1C(=O)Nc1cc(Br)cc(C(=O)O)c1)cn2C(N)=O [Example 342, 3-Bromo-5-{[(1R,3S,5R)-2-(1-carbamoyl-5-methoxy-1H-indol-3-ylcarbamoyl)-2-aza-bicyclo[3.1.0]hexane-3-carbonyl]-amino}-benzoic acid] | 55
17 | COC[C@@]12C[C@@H]1N(C(=O)Nc1cn(C(N)=O)c3ccccc13)[C@H](C(=O)NCc1cccc(Cl)c1F)C2 [Example 214, (1S,3S,5R)-5-Methoxymethyl-2-aza-bicyclo[3.1.0]hexane-2,3-dicarboxylic acid 2-[(1-carbamoyl-1H-indol-3-yl)-amide] 3-(3-chloro-2-fluoro-benzylamide)] | 1570
18 | CO[C@H]1[C@@H](C(=O)Nc2cccc(OC(F)(F)F)c2F)N(C(=O)Cn2nc(C(N)=O)c3ccccc32)C[C@@H]1F [Example 628, 1-{2-[(2S,3S,4S)-4-Fluoro-2-(2-fluoro-3-trifluoromethoxy-phenylcarbamoyl)-3-methoxy-pyrrolidin-1-yl]-2-oxo-ethyl}-1H-indazole-3-carboxylic acid amide] | 38
19 | C[C@@]1(F)C[C@@H](C(=O)NCc2cccc(Cl)c2F)N(C(=O)Cn2cc(C(N)=O)c3ccccc32)C1 [Example 496, 1-{2-[(2S,4R)-2-(3-Chloro-2-fluoro-benzylcarbamoyl)-4-fluoro-4-methyl-pyrrolidin-1-yl]-2-oxo-ethyl}-1H-indole-3-carboxylic acid amide] | 176
20 | NC[C@@]1(F)C[C@@H](C(=O)NCc2c(F)ccc(Cl)c2F)N(C(=O)Cc2cn(C(N)=O)c3ccccc23)C1 [Example 471, 3-{2-[(2S,4S)-4-Aminomethyl-2-(3-chloro-2,6-difluoro-benzylcarbamoyl)-4-fluoro-pyrrolidin-1-yl]-2-oxo-ethyl}-indole-1-carboxylic acid amide] | 89
21 | CC(=O)c1nn(CC(=O)N2[C@@H]3C[C@@H]3C[C@H]2C(=O)Nc2cccc(OC(F)(F)F)c2F)c2ccc(OC(C)C#N)cc12 (stereo partly drawn) [Example 771, (1R,3S,5R)-2-{2-[3-Acetyl-5-(cyano-methyl-methoxy)-indazol-1-yl]-acetyl}-2-aza-bicyclo[3.1.0]hexane-3-carboxylic acid (2-fluoro-3-trifluoromethoxy-phenyl)-amide] | 8
22 | NC(=O)n1cc(NC(=O)N2[C@@H]3C[C@@H]3C[C@H]2C(=O)Nc2cncc(Cl)c2)c2ccccc21 [Example 247, (1R,3S,5R)-2-Aza-bicyclo[3.1.0]hexane-2,3-dicarboxylic acid 2-[(1-carbamoyl-1H-indol-3-yl)-amide] 3-[(5-chloro-pyridin-3-yl)-amide]] | 400
23 | NC(=O)n1cc(NC(=O)N2[C@@H]3C[C@@H]3C[C@H]2C(=O)NCc2cccc(Cl)c2F)c2cc(OCCN3CCCC3)ccc21 [Example 388, 1R,3S,5R)-2-Aza-bicyclo[3.1.0]hexane-2,3-dicarboxylic acid 2-{[1-carbamoyl-5-(2-pyrrolidin-1-yl-ethoxy)-1H-indol-3-yl]-amide}3-(3-chloro-2-fluoro-benzylamide] | 28
24 | CC(=O)NC[C@H]1CC[C@@H](C(=O)Nc2cccc(OC(F)(F)F)c2)N1C(=O)Nc1cn(C(N)=O)c2ccccc12 [Example 139, (2S,5R)-5-(Acetylamino-methyl)-pyrrolidine-1,2-dicarboxylic acid 1-[(1-carbamoyl-1H-indol-3-yl)-amide] 2-[(3-trifluoromethoxy-phenyl)-amide]] | 1500
25 | CC(=O)c1cn(CC(=O)N2C[C@H](F)C[C@H]2C(=O)NCc2cccc(Cl)c2F)c2cc(OCc3nn[nH]n3)ccc12 [Example 586, (2S,4R)-1-{2-[3-Acetyl-6-(1H-tetrazol-5-ylmethoxy)-indol-1-yl]-acetyl}-4-fluoro-pyrrolidine-2-carboxylic acid 3-chloro-2-fluoro-benzylamide] | 132
26 | CC(=O)c1nc(CC(=O)N2[C@@H]3C[C@@H]3C[C@H]2C(=O)N[C@H](CC#N)c2cccc(Cl)c2F)n2ccccc12 [Example 679, (1R,3S,5R)-2-[2-(1-Acetyl-imidazo[1,5-a]pyridin-3-yl)-acetyl]-2-aza-bicyclo[3.1.0]hexane-3-carboxylic acid [(R)-1-(3-chloro-2-fluoro-phenyl)-2-cyano-ethyl]-amide] | 134
27 | COCCOc1ccc2c(c1)c(NC(=O)N1C3CC3C[C@H]1C(=O)NCc1cccc(Cl)c1F)cn2C(N)=O (stereo partly drawn) [Example 162, (1R,3S,5R)-2-Aza-bicyclo[3.1.0]hexane-2,3-dicarboxylic acid 2-{[1-carbamoyl-5-(2-methoxy-ethoxy)-1H-indol-3-yl]-amide} 3-(3-chloro-2-fluoro-benzylamide)] | 5
